# Experiments:
# [1] = Inhibitory activity of compound was evaluated against thrombin-fibrinogen (Fg)
# [2] = Inhibitory activity of compound was evaluated against thrombin-S-2238
# [3] = Inhibitory activity of compound was evaluated against plasma kallikrein-S-2302; format: cell-free
# [4] = Inhibitory activity of compound was evaluated against plasmin-fibrin (Fn)
# Plasminogen [5] = target: T1, Plasminogen (Homo sapiens, UniProt P00747); test: Inhibitory activity of compound was evaluated against plasmin
# T1 sequence (P00747 97-580 limits assumed): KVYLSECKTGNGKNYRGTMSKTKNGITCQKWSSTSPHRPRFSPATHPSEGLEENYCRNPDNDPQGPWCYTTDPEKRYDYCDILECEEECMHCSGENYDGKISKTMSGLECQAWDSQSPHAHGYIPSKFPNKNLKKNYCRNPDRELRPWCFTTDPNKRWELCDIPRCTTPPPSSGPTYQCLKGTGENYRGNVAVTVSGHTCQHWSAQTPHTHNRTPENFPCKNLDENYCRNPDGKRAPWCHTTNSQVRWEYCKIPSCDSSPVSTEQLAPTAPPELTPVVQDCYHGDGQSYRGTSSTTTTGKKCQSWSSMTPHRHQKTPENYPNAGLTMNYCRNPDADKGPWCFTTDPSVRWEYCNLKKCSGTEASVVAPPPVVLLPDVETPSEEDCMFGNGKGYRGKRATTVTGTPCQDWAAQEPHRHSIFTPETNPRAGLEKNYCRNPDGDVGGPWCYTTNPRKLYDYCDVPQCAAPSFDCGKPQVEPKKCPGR
# T1 sequence (P00747 581-810 limits assumed): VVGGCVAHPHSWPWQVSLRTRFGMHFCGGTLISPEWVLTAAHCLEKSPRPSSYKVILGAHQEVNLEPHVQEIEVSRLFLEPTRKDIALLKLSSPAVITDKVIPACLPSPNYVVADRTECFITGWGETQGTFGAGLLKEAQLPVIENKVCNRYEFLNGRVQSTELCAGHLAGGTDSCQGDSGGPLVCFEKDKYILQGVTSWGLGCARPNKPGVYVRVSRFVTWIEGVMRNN
# [6] = Inhibitory activity of compound was evaluated against urokinase-S-2444
# [7] = Inhibitory activity of compound was evaluated against thrombin-S-2238; not detectable
# [8] = Inhibitory activity of compound was evaluated against thrombin-fibrinogen (Fg); not detectable
# [9] = Inhibitory activity of compound was evaluated against plasma kallikrein-S-2302; not detectable; format: cell-free
# Plasminogen [10] = target: T1, Plasminogen; test: Inhibitory activity of compound was evaluated against plasmin; not detectable
# [11] = Inhibitory activity of compound was evaluated against urokinase-S-2444; not detectable
# [12] = Inhibitory activity of compound was evaluated against plasmin-fibrin (Fn); not detectable
Compound,IC50 [1],IC50 [2],IC50 [3],IC50 [4],IC50 (Plasminogen [5]),IC50 ([6]; read-out: IC50),also measured
CCCCCCCCOC(=O)[C@H]1CC[C@H](CNC(=O)C(Cc2ccc(OC(=O)OCc3ccccc3Br)cc2)NC(=O)[C@H]2CC[C@H](CN)CC2)CC1 (some centres not stated),> 10 µM,> 50 µM,45 µM,0.56 µM,2.5 µM,> 50 µM,–
CCCCCCCCNC(=O)C(Cc1ccc(OC(=O)OCc2ccccc2Br)cc1)NC(=O)[C@H]1CC[C@H](CN)CC1 (some centres not stated),> 25 µM,> 50 µM,16 µM,0.23 µM,0.8 µM,> 50 µM,–
Cc1nc(C)c(CCCNC(=O)C(Cc2ccc(OC(=O)OCc3ccccc3Br)cc2)NC(=O)[C@H]2CC[C@H](CN)CC2)nc1O (some centres not stated),–,–,–,0.39 µM,–,54 µM,IC50 ([7]; read-out: IC50): 490 µM; IC50 ([8]; read-out: IC50): > 250 µM; IC50 ([9]; read-out: IC50): 36 µM; IC50 (Plasminogen [10]; read-out: IC50): 0.74 µM
CCCCCCCCNC(=O)C(Cc1ccc(OCc2ccncc2)cc1)NC(=O)[C@H]1CC[C@H](CN)CC1 (some centres not stated),> 100 µM,> 400 µM,30 µM,0.36 µM,0.53 µM,5.3 µM,–
NC[C@H]1CC[C@H](C(=O)NC(Cc2ccc(Oc3ncccn3)cc2)C(=O)Nc2cccc(C(=O)O)c2)CC1 (some centres not stated),> 1000 µM,> 1000 µM,0.71 µM,29 µM,32 µM,650 µM,–
Cc1nc(Cc2ccccc2)c(O)nc1CCCCNC(=O)c1cccs1,–,–,–,–,–,–,IC50 [11]: Not detectable; IC50 [7]: Not detectable; IC50 [8]: Not detectable; IC50 [12]: Not detectable; IC50 [9]: Not detectable; IC50 (Plasminogen [10]): Not detectable
Cc1nc(Cc2ccccc2)c(O)nc1Cc1ccccc1,–,–,–,–,–,–,IC50 [11]: Not detectable; IC50 [7]: Not detectable; IC50 [8]: Not detectable; IC50 [12]: Not detectable; IC50 [9]: Not detectable; IC50 (Plasminogen [10]): Not detectable
CC(C)CCNC(=O)C(Cc1ccc(OC(=O)OCc2ccccc2Br)cc1)NC(=O)[C@H]1CC[C@H](CN)CC1 (some centres not stated),> 100 µM,70 µM,2.1 µM,0.056 µM,0.46 µM,260 µM,–
NC[C@H]1CC[C@H](C(=O)NC(Cc2ccccc2)C(=O)Nc2ccc(CC(=O)O)cc2)CC1 (some centres not stated),> 1000 µM,> 1000 µM,1.3 µM,350 µM,620 µM,350 µM,–
Cc1nc(CCC(=O)OCc2ccccc2)c(O)nc1CCCCNC(=O)OCc1ccccc1,–,–,–,–,–,–,IC50 [7]: Not detectable; IC50 [8]: Not detectable; IC50 [12]: Not detectable; IC50 [9]: Not detectable; IC50 (Plasminogen [10]): Not detectable; IC50 [6]: Not detectable
CC(=O)c1ccc(NC(=O)C(Cc2ccc(OC(=O)OCc3ccccc3Br)cc2)NC(=O)[C@H]2CC[C@H](CN)CC2)cc1 (some centres not stated),–,–,0.37 µM,–,0.23 µM,–,–
